{"source": "ChEMBL document CHEMBL2380228", "about": "“Nucleotide competing reverse transcriptase inhibitors: discovery of a series of non-basic benzofurano[3,2-d]pyrimidin-2-one derived inhibitors” (Bioorg Med Chem Lett, 2013)"}
{"molecular_target": "not listed separately", "test": "Inhibition of HIV-1 BH10 reverse transcriptase using poly(rA)/oligo(dT)15 as substrate after 60 mins by plate reader analysis", "set-up": "species or system Human immunodeficiency virus type 1 BH10", "settings": "not given", "units": {"IC50": "nM"}}
{"smiles": "COC[C@@H](C)Cn1c(=O)nc(-c2ccccc2)c2oc3ccc(-c4ccc(CN(C)C)cc4)cc3c21", "IC50": 635}
{"smiles": "CCCCn1c(=O)nc(-c2ccccc2)c2oc3ccc(-c4ccc(CN(C)C)cc4)cc3c21", "IC50": 42}
{"smiles": "Cc1ccc(-n2c(=O)nc(-c3ccccc3)c3oc4ccc(-c5ccc(CN(C)C)cc5)cc4c32)cc1C#N", "IC50": 7.3}
{"smiles": "CN(C)Cc1ccc(-c2ccc3oc4c(-c5ccccc5)nc(=O)n(-c5ccc([N+](=O)[O-])cc5)c4c3c2)cc1", "IC50": 1.7}
{"smiles": "CCOC(=O)CCCn1c(=O)nc(-c2ccccc2)c2oc3ccc(-c4ccc(CN(C)C)cc4)cc3c21", "IC50": "> 1100"}
{"smiles": "COCCCCn1c(=O)nc(-c2ccccc2)c2oc3ccc(-c4ccc(CN(C)C)cc4)cc3c21", "IC50": 86}
{"smiles": "CCNCC(=O)Nc1ccc(-c2nc(=O)n(CCCOC)c3c2oc2ccc(Cl)cc23)cc1", "IC50": 2.8}
{"smiles": "CC(C)CCCn1c(=O)nc(-c2ccccc2)c2oc3ccc(-c4ccc(CN(C)C)cc4)cc3c21", "IC50": 55}
{"smiles": "CC(C)Cn1c(=O)nc(-c2ccccc2)c2oc3ccc(-c4ccc(CN(C)C)cc4)cc3c21", "IC50": 655}
{"smiles": "CN(C)Cc1ccc(-c2ccc3oc4c(-c5ccccc5)nc(=O)n(-c5ccccc5)c4c3c2)cc1", "IC50": 245}
{"smiles": "CC(C)n1c(=O)nc(-c2ccccc2)c2oc3ccc(-c4ccc(CN(C)C)cc4)cc3c21", "IC50": 800}
{"smiles": "CN(C)Cc1ccc(-c2ccc3oc4c(-c5ccccc5)nc(=O)n(CCCC(=O)O)c4c3c2)cc1", "IC50": "> 4700"}
{"smiles": "COCCCn1c(=O)nc(-c2ccc(N3CCN(CCOC)CC3)nc2)c2oc3ccc(Cl)cc3c21", "IC50": 8}
{"smiles": "CNc1ccc(-c2nc(=O)n(CCCOC)c3c2oc2ccc(-c4cnn(C)c4)cc23)cn1", "IC50": 4}
{"smiles": "COCCCn1c(=O)nc(-c2ccc(N3CCN(C(C)C)CC3)nc2)c2oc3ccc(Cl)cc3c21", "IC50": 3}
{"test_system": "Human immunodeficiency virus 1", "test": "Antiviral activity against wild type HIV1-infected human C8166 cells after 1.5 hrs by luciferase reporter gene assay", "assay_type": "functional, organism-based", "settings": "Human immunodeficiency virus 1, C8166, 1.5 h", "units": {"EC50": "nM"}}
{"smiles": "CCNCC(=O)Nc1ccc(-c2nc(=O)n(CCCOC)c3c2oc2ccc(Cl)cc23)cc1", "EC50": 33}
{"smiles": "COCCCn1c(=O)nc(-c2ccc(N3CCN(CCOC)CC3)nc2)c2oc3ccc(Cl)cc3c21", "EC50": 56}
{"smiles": "CNc1ccc(-c2nc(=O)n(CCCOC)c3c2oc2ccc(-c4cnn(C)c4)cc23)cn1", "EC50": 148}
{"smiles": "COCCCn1c(=O)nc(-c2ccc(N3CCN(C(C)C)CC3)nc2)c2oc3ccc(Cl)cc3c21", "EC50": 37}
{"test_system": "not listed separately", "test": "Cytotoxicity against human C8166-LTR-Luc cells after 3 days by MTT assay", "assay_type": "cell-based", "settings": "not given", "units": {"CC50 at 72 h": "nM"}}
{"smiles": "CCNCC(=O)Nc1ccc(-c2nc(=O)n(CCCOC)c3c2oc2ccc(Cl)cc23)cc1", "CC50 at 72 h": "> 8600"}
{"smiles": "CNc1ccc(-c2nc(=O)n(CCCOC)c3c2oc2ccc(-c4cnn(C)c4)cc23)cn1", "CC50 at 72 h": "> 17000"}
{"smiles": "COCCCn1c(=O)nc(-c2ccc(N3CCN(C(C)C)CC3)nc2)c2oc3ccc(Cl)cc3c21", "CC50 at 72 h": "> 3200"}
{"test_system": "not listed separately", "test": "Solubility of the compound in phosphate buffer at pH 2.0 after 24 hrs at 25 degC by LC-MS analysis", "assay_type": "physicochemical", "settings": "not given", "units": {"solubility at 24 h": "µg/mL"}}
{"smiles": "CNc1ccc(-c2nc(=O)n(CC[C@H]3CCCO3)c3c2oc2ncc(-c4cnn(C)c4)cc23)cn1", "solubility at 24 h": "> 871"}
{"smiles": "CNc1ccc(-c2nc(=O)n(CC[C@@H]3CCCO3)c3c2oc2ncc(-c4cnn(C)c4)cc23)cn1", "solubility at 24 h": "> 844"}
{"smiles": "CNc1ccc(-c2nc(=O)n(CCCOC)c3c2oc2ccc(-c4cnn(C)c4)cc23)cn1", "solubility at 24 h": "> 1000"}
{"test_system": "not listed separately", "test": "Clearance in human liver microsomes at 1 uM by LC-MS/MS analysis relative to hepatic blood flow", "assay_type": "ADME, Microsome", "settings": "read-out: CLH"}
{"smiles": "CCNCC(=O)Nc1ccc(-c2nc(=O)n(CCCOC)c3c2oc2ccc(Cl)cc23)cc1", "hepatic extraction ratio at 1 µM": 0.46}
{"smiles": "COCCCn1c(=O)nc(-c2ccc(N3CCN(CCOC)CC3)nc2)c2oc3ccc(Cl)cc3c21", "hepatic extraction ratio at 1 µM": 0.78}
{"smiles": "CNc1ccc(-c2nc(=O)n(CCCOC)c3c2oc2ccc(-c4cnn(C)c4)cc23)cn1", "hepatic extraction ratio at 1 µM": 0.5}
{"smiles": "COCCCn1c(=O)nc(-c2ccc(N3CCN(C(C)C)CC3)nc2)c2oc3ccc(Cl)cc3c21", "hepatic extraction ratio at 1 µM": 0.59}
{"test_system": "Human immunodeficiency virus type 1 BH10", "test": "Inhibition of HIV-1 BH10 reverse transcriptase using poly(rA)/oligo(dT)15 as substrate at > 4700 nM after 60 mins by plate reader analysis", "settings": "not given", "units": {"inhibition": "%"}}
{"smiles": "CN(C)Cc1ccc(-c2ccc3oc4c(-c5ccccc5)nc(=O)n(CCCC(=O)O)c4c3c2)cc1", "inhibition": 46}
{"test_system": "not listed separately", "test": "Solubility of the compound in phosphate buffer at pH 6.8 after 24 hrs at 25 degC by LC-MS analysis", "assay_type": "physicochemical", "settings": "not given", "units": {"solubility at 24 h": "µg/mL"}}
{"smiles": "CNc1ccc(-c2nc(=O)n(CC[C@H]3CCCO3)c3c2oc2ncc(-c4cnn(C)c4)cc23)cn1", "solubility at 24 h": 1.2}
{"smiles": "CNc1ccc(-c2nc(=O)n(CC[C@@H]3CCCO3)c3c2oc2ncc(-c4cnn(C)c4)cc23)cn1", "solubility at 24 h": "> 928"}
{"smiles": "CNc1ccc(-c2nc(=O)n(CCCOC)c3c2oc2ccc(-c4cnn(C)c4)cc23)cn1", "solubility at 24 h": "> 1000"}
{"test_system": "not listed separately", "test": "Permeability from apical to basolateral side of human Caco2 cells", "assay_type": "ADME, cell-based", "settings": "Caco-2, read-out: permeability", "units": {"Papp A→B": "×10⁻⁶ cm/s"}}
{"smiles": "CCNCC(=O)Nc1ccc(-c2nc(=O)n(CCCOC)c3c2oc2ccc(Cl)cc23)cc1", "Papp A→B": "< 0.1"}
{"smiles": "COCCCn1c(=O)nc(-c2ccc(N3CCN(CCOC)CC3)nc2)c2oc3ccc(Cl)cc3c21", "Papp A→B": 12}
{"smiles": "CNc1ccc(-c2nc(=O)n(CCCOC)c3c2oc2ccc(-c4cnn(C)c4)cc23)cn1", "Papp A→B": 1.6}
{"smiles": "COCCCn1c(=O)nc(-c2ccc(N3CCN(C(C)C)CC3)nc2)c2oc3ccc(Cl)cc3c21", "Papp A→B": 2.6}
{"test_system": "Human immunodeficiency virus type 1 BH10", "test": "Inhibition of HIV-1 BH10 reverse transcriptase using poly(rA)/oligo(dT)15 as substrate at > 1100 nM after 60 mins by plate reader analysis", "settings": "not given", "units": {"inhibition": "%"}}
{"smiles": "CCOC(=O)CCCn1c(=O)nc(-c2ccccc2)c2oc3ccc(-c4ccc(CN(C)C)cc4)cc3c21", "inhibition": 14}
